According to patent US20230183237A1, “COMPETITIVE AND NONCOMPETITIVE INHIBITORS OF THE MUSCARINIC ACETYLCHOLINE RECEPTOR M5” (Vanderbilt University, priority 2020, published 2023):
Where two headings read alike, the source gives them in different places.

Target: T1, hM5 (Homo sapiens, UniProt P08912)
T1 construct: expressed in transfected cells
T1 sequence (P08912 1-532): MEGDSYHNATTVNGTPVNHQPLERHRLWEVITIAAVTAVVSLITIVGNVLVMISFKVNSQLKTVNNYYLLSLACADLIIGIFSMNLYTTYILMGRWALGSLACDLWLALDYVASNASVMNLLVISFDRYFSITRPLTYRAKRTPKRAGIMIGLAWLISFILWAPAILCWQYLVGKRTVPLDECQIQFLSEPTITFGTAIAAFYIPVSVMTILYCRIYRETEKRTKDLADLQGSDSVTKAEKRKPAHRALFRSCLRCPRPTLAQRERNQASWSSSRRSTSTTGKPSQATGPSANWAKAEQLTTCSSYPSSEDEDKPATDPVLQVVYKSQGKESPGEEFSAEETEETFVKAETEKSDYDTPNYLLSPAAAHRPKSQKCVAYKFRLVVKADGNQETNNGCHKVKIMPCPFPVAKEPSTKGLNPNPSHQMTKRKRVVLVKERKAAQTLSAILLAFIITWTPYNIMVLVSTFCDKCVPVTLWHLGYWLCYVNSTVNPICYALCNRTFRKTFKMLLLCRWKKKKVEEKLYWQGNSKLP
Test: Calcium mobilization concentration-response (IC50 vs EC80 acetylcholine), CHO hM5
Assay type: cell-based
Settings: CELL LINE hM5, read-out: IC50
Procedure: Initial, single point (10 μM) compound characterization was performed in stable Chinese Hamster Ovary (CHO) cell lines constitutively expressing human M5 receptors. These were plated at 15,000 cells per 20 μL per well in Greiner 384-well black-walled, TC-treated, clear-bottomed plates (Fisher) in Ham's F12 medium supplemented with 10% FBS and 20 mM HEPES. Cells were incubated overnight at 37° C. under 5% CO2. The following day, medium was exchanged with assay buffer (Hank's Balanced Salt Solution supplemented with 20 mM HEPES and 2.5 mM Probenecid, pH 7.4) leaving 20 μL of assay buffer in each well. […] The cells were then incubated 50 minutes at 37° C. under 5% CO2. The assay buffer plus dye was then exchanged with fresh assay buffer leaving a volume of 20 μL in each well. Test compounds were diluted into assay buffer to a 2X (20 μM) concentration in 0.2% dimethylsulfoxide (DMSO) in columns 3-22 with matching DMSO concentration in columns 1, 2, 23, and […]; compounds were added to the assay for a final concentration of 10 μM and a final DMSO concentration of 0.1%.
Either an FDSS (Hamamatsu) or Panoptic (WaveFront Biosciences) kinetic imaging plate reader was used for assay execution and measurement of calcium flux. After establishing baseline fluorescence, test compounds (20 μL) were added to the cells using the reader's integrated pipettor and allowed to equilibrate for 140 seconds before addition of the […] concentration of acetylcholine (10 μL) along with vehicle in selected DMSO-only wells in the outer two columns . […] The raw fluorescence data from each well was normalized to the corresponding initial fluorescence reading (static ratio). The maximum fluorescence value following each addition was determined and the minimum value within that same timeframe was subtracted for each well then normalized to the average of the ECffiax maximum-minimum response, providing a % AChmax value for each addition for each well. The single point values represent mean values determined within the ECsu addition timeframe obtained from at least three independent determinations performed in triplicate or greater (error bars represent +/−SEM) unless otherwise specified.
CHO cells stably expressing hM1, hM2/Gqi5, hM3, hM4/Gqi5, hM5, rM1/Gqi5, rM3, rM4/Gqi5, or rM5 were plated in the manner described above. […] FDSS protocols were carried out as described above; the static ratio was calculated and the minimum response subtracted from the maximum response within the timeframe of each addition. This max-min response was then normalized to the maximum acetylcholine response. Calculation of IC50 was performed using the percent maximum acetylcholine response for the EC80 addition through the Vortex and Studies modules of the Dotmatics data management software. Results are stored in the Dotrnatics database and an audit trail of any changes to their analysis is generated. Data shown represent mean values obtained from at least three independent determinations performed in triplicate or greater (error bars represent±SEM) unless otherwise specified.

[1] = calcium mobilization, EC80 acetylcholine addition

| IC50 (vs EC80 acetylcholine) | IC50 [1] | Structure (SMILES) |
| --- | --- | --- |
| 39 nM | – | Cc1cc2ncccc2cc1C1CCN(S(=O)(=O)c2cnc3n2CCCC3)CC1 [Compound 450, 7-methyl-6-(1-((5,6,7,8-tetrahydroimidazo[1,2-a]pyridin-3-yl)sulfonyl)piperidin-4-yl)quinoline] |
| > 10000 nM | – | Cn1cnnc1S(=O)(=O)N1CCC(c2cn3ncnc3cc2C(F)F)CC1 [Compound 517, 7-(difluoromethyl)-6-(1-((4-methyl-4H-1,2,4-triazol-3-yl)sulfonyl)piperidin-4-yl)-[1,2,4]triazolo[1,5-a]pyridine] |
| – | 12 nM | Cc1c(C2CCN(S(=O)(=O)c3cnn4c3CCCC4)CC2)cn2ncnc2c1F [Compound 305, 8-fluoro-7-methyl-6-(1-((4,5,6,7-tetrahydropyrazolo[1,5-a]pyridin-3-yl)sulfonyl)piperidin-4-yl)-[1,2,4]triazolo[1,5-a]pyridine] |
| – | > 10000 nM | Cc1nc2[nH]ccc2nc1C1CCN(S(=O)(=O)c2ccc3c(c2)CCO3)CC1 [Compound 15, 2-(1-((2,3-dihydrobenzofuran-5-yl)sulfonyl)piperidin-4-yl)-3-methyl-5H-pyrrolo[2,3-b]pyrazine] |
| – | 1400 nM | COc1cc2ncnn2cc1C1CCN(S(=O)(=O)c2cnn3c2CCC3)CC1 [Compound 263, 6-(1-((5,6-dihydro-4H-pyrrolo[1,2-b]pyrazol-3-yl)sulfonyl)piperidin-4-yl)-7-methoxy-[1,2,4]triazolo[1,5-a]pyridine] |
| – | 1200 nM | Cc1cc2nc(C(F)F)nn2cc1C1=CCN(S(=O)(=O)c2cnn3c2CCCC3)CC1 [Compound 316, 2-(difluoromethyl)-7-methyl-6-(1-((4,5,6,7-tetrahydropyrazolo[1,5-a]pyridin-3-yl)sulfonyl)-1,2,3,6-tetrahydropyridin-4-yl)-[1,2,4]triazolo[1,5-a]pyridine] |
| – | 82 nM | Cc1cc2ncnn2cc1C1(F)CCN(S(=O)(=O)c2cnn(C)c2C)CC1 [Compound 173, 6-(1-((1,5-dimethyl-1H-pyrazol-4-yl)sulfonyl)-4-fluoropiperidin-4-yl)-7-methyl-[1,2,4]triazolo[1,5-a]pyridine] |
| – | > 10000 nM | O=S(=O)(c1ccc(Cl)nc1)N1CCC(c2cc3cc[nH]c3cn2)CC1 [Compound 94, 5-(1-((6-chloropyridin-3-yl)sulfonyl)piperidin-4-yl)-1H-pyrrolo[2,3-c]pyridine] |
| – | 2060 nM | Cc1cc2c(cc1C1CCN(S(=O)(=O)c3ccc4c(c3)CCO4)CC1)OCO2 [Compound 375, 1-((2,3-dihydrobenzofuran-5-yl)sulfonyl)-4-(6-methylbenzo[d][1,3]dioxol-5-yl)piperidine] |
| – | 6300 nM | Cc1cc2c(cc1S(=O)(=O)N1CCC(c3ccc4ncnn4c3C)CC1)C(C)CO2 (centres unmarked) [Compound 85, 6-(1-((3,6-dimethyl-2,3-dihydrobenzofuran-5-yl)sulfonyl)piperidin-4-yl)-5-methyl-[1,2,4]triazolo[1,5-a]pyridine] |
| 26 nM | – | Cc1c(C2CCN(S(=O)(=O)c3cnn(C)c3C#N)CC2)cn2ncnc2c1F [Compound 438, 4-((4-(8-flooro-7-methyl-[1,2,4]triazolo[1,5-a]pyridin-6-yl)piperidin-1-yl)sulfonyl)-1-methyl-1H-pyrazole-5-carbonitrile] |
| 342 nM | – | Cc1nnc(S(=O)(=O)N2CCC(c3cn4ncnc4cc3C(F)F)CC2)s1 [Compound 556, 2-((4-(7-(difluoromethyl)-[1,2,4]triazolo[1,5-a]pyridin-6-yl)piperidin-1-yl)sulfonyl)-5-methyl-1,3,4-thiadiazole] |
| – | > 10000 nM | Cc1ccc(S(=O)(=O)N2CCC(c3cn4ccnc4cc3C)CC2)cn1 [Compound 69, 7-methyl-6-(1-((6-methylpyridin-3-yl)sulfonyl)piperidin-4-yl)imidazo[1,2-a]pyridine] |
| – | 2100 nM | Cc1cc2ncnn2cc1C1CCN(S(=O)(=O)c2cn(C)nc2C(F)(F)F)CC1 [Compound 101, 7-methyl-6-(1-((1-methyl-3-(trifluoromethyl)-1H-pyrazol-4-yl)sulfonyl)piperidin-4-yl)-[1,2,4]triazolo[1,5-a]pyridine] |
| – | > 10000 nM | Cc1nc(C)c(S(=O)(=O)N2CCC(c3cn4ncnc4cc3F)CC2)s1 [Compound 235, 5-((4-(7-fluoro-[1,2,4]triazolo[1,5-a]pyridin-6-yl)piperidin-1-yl)sulfonyl)-2,4-dimethylthiazole] |
| 7300 nM | – | Cn1ncc(S(=O)(=O)N2CC=C(c3c4ccccc4nn3C)CC2)c1C#N [Compound 490, 1-methyl-4-((4-(2-methyl-2H-indazol-3-yl)-3,6-dihydropyridin-1(2H)-yl)sulfonyl)-1H-pyrazole-5-carbonitrile] |
| – | 87 nM | Cc1c(S(=O)(=O)N2CCC(c3cn4ncnc4cc3F)CC2)c(Cl)nn1C [Compound 329, 6-(1-((3-chloro-1,5-dimethyl-1H-pyrazol-4-yl)sulfonyl)piperidin-4-yl)-7-fluoro-[1,2,4]triazolo[1,5-a]pyridine] |
| – | > 10000 nM | O=S(=O)(c1cnn2c1OCCC2)N1CCC(c2ccncc2)CC1 [Compound 367, 3-((4-(pyridin-4-yl)piperidin-1-yl)sulfonyl)-6,7-dihydro-5H-pyrazolo[5,1-b][1,3]oxazine] |
| 1700 nM | – | O=S(=O)(c1cnc(Cl)s1)N1CCC(c2cn3ncnc3cc2C(F)F)CC1 [Compound 516, 2-chloro-5-((4-(7-(difluoromethyl)-[1,2,4]triazolo[1,5-a]pyridin-6-yl)piperidin-1-yl)sulfonyl)thiazole] |
| – | 26 nM | CCc1cc2ncnn2cc1C1CCN(S(=O)(=O)c2cnn3c2CCC3)CC1 [Compound 299, 6-(1-((5,6-dihydro-4H-pyrrolo[1,2-b]pyrazol-3-yl)sulfonyl)piperidin-4-yl)-7-ethyl-[1,2,4]triazolo[1,5-a]pyridine] |
| – | 6.1 nM | O=S(=O)(c1cnn2c1CCC2)N1CC=C(c2cn3ncnc3cc2Cl)CC1 [Compound 196, 7-chloro-6-(1-((5,6-dihydro-4H-pyrrolo[1,2-b]pyrazol-3-yl)sulfonyl)-1,2,3,6-tetrahydropyridin-4-yl)-[1,2,4]triazolo[1,5-a]pyridine] |
| – | > 10000 nM | Cc1cc2ncnn2cc1C1CCN(S(=O)(=O)c2ccccc2-c2ccno2)CC1 [Compound 96, 5-(2-((4-(7-methyl-[1,2,4]triazolo[1,5-a]pyridin-6-yl)piperidin-1-yl)sulfonyl)phenyl)isoxazole] |
| – | 103 nM | Cc1cc2ncnn2cc1[C@@H]1CCN(S(=O)(=O)c2cnn(C)c2Cl)C[C@H]1O (racemic) [Compound 282, (rac)-trans-1-((5-Chloro-1-methyl-1H-pyrazol-4-yl)sulfonyl-4-(7-methyl-[1,2,4]triazolo[1,5-a]pyridin-6-yl)piperidin-3-ol] |
| 11 nM | – | Cn1ncc(S(=O)(=O)N2CCC(c3cn4ncnc4cc3Cl)CC2)c1C#N [Compound 405, 4-((4-(7-chloro-[1,2,4]triazolo[1,5-a]pyridin-6-yl)piperidin-1-yl)sulfonyl)-1-methyl-1H-pyrazole-5-carbonitrile] |
| 493 nM | – | Cc1cc2ncnn2cc1C1CCN(S(=O)(=O)c2nncn2C)CC1 [Compound 524, 7-methyl-6-(1-((4-methyl-4H-1,2,4-triazol-3-yl)sulfonyl)piperidin-4-yl)-[1,2,4]triazolo[1,5-a]pyridine] |
| 530 nM | – | Cc1ncc(S(=O)(=O)N2CCC(c3cn4ccnc4cc3Cl)CC2)s1 [Compound 589, 5-((4-(7-chloroimidazo[1,2-a]pyridin-6-yl)piperidin-1-yl)sulfonyl)-2-methylthiazole] |
